What all share (assay type): cell-based
Holding throughout (settings): LB broth, 5×10^5 CFU/ml, 37° C., 18 hours, scored by eye

The subject of one experiment is E. cloacae ATCC222. Briefly: Minimum Inhibitory Concentration (MIC) determination, E. cloacae ATCC222. Also on record: unit not given here. On the procedure: (§1) MICs were determined by performing two-fold serial dilutions of peptides in LB broth to a final volume of 0.1 ml in round-bottom 96-well assay plates (Corning Life Sciences No 3788). Peptides were initially resuspended in 100% DMSO to 10 mM and subsequently diluted in LB medium to the appropriate concentration. Each well was inoculated with 5×10^5 CFU/ml of the screening stain and incubated at 37° C. without agitation for 18 hours. Plates were scored by eye, and the lowest compound concentration preventing visible growth was determined to be the MIC.

The test system of a further experiment is K. pneumoniae ATCC43816. As to the kind of experiment: Minimum Inhibitory Concentration (MIC) determination, K. pneumoniae ATCC43816. The arrangement: unit not given here. As to the method:
as §1

The subject of a further experiment is E. coli 25922. As to the kind of experiment: Minimum Inhibitory Concentration (MIC) determination, E. coli 25922. Also on record: unit not given here. The gist of the method: (§2)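 Peptides, diluted two-fold in LB broth from 10 mM DMSO stocks, were inoculated with 5×10^5 CFU/ml of each strain. Incubation was 18 h at 37 °C without shaking. MIC is the lowest concentration preventing visible growth, scored by eye.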

A further experiment deals with E. coli BW25113. As to the kind of experiment: Minimum Inhibitory Concentration (MIC) determination, E. coli BW25113. Also on record: unit not given here. The gist of the method:
as §2

For a further experiment, the system named is E. coli 25922 IMP. Briefly: Minimum Inhibitory Concentration (MIC) determination, E. coli 25922 IMP. The gist of the method:
as §2

Bridge positions count the residues as written; N and C are the ends. Square brackets hold non-standard residues; d marks the D form. Peptide text beside a SMILES is read from it. Gly(Nα-CH2CH2CONH2) = NC(=O)CCNCC(=O)O; 1Nal = N[C@@H](Cc1cccc2ccccc12)C(=O)O; His(π-Me) = Cn1cncc1C[C@H](N)C(=O)O; NMeY = CN[C@@H](Cc1ccc(O)cc1)C(=O)O; NMeR = CN[C@@H](CCCNC(=N)N)C(=O)O; Nle = CCCC[C@H](N)C(=O)O; Abu = CC[C@H](N)C(=O)O

For the compound `CC[C@@H]1NC(=O)[C@H](Cc2ccccc2)NC(=O)CSC[C@@H](C(=O)NCC(N)=O)NC(=O)[C@H](Cc2cncn2C)NC(=O)[C@H](CCCNC(=N)N)NC(=O)[C@H](C)NC(=O)[C@H](Cc2ccc(O)cc2)N(C)C(=O)[C@H](CCCNC(=N)N)NC(=O)[C@H](CO)NC(=O)CNC(=O)[C@H](Cc2c[nH]cn2)NC(=O)[C@H](Cc2cccc3ccccc23)NC1=O` [Compound 37] ({CH2CO}-F[Abu][1Nal]HGSR[NMeY]AR[His(π-Me)]CG-NH2; thioether N-12), in the experiment on E. cloacae ATCC222, the “MIC E. cloacae ATCC222 WUXI::MIC” value is reported as 100. The “MIC K. pneumoniae ATCC43816 Wuxi::MIC” value against K. pneumoniae ATCC43816 is listed as 100. Also, in the experiment with E. coli 25922, the “MIC E. coli 25922 WUXI::MIC” value amounted to 100. Also, the “MIC E. coli BW25113 WUXI::MIC” value with E. coli BW25113 is recorded as 100. For the same compound, in the experiment with E. coli 25922 IMP, the “MIC E. coli 25922 IMP WUXI::MIC” value stood at 25.
As to `CC[C@H](C)[C@@H]1NC(=O)[C@H](Cc2ccccc2)NC(=O)CSC[C@@H](C(=O)NCC(N)=O)NC(=O)[C@H](Cc2cncn2C)NC(=O)[C@H](CCCNC(=N)N)NC(=O)[C@H](Cc2cnc[nH]2)NC(=O)[C@H](Cc2ccccc2)N(C)C(=O)[C@H](CCCNC(=N)N)NC(=O)[C@H](CO)NC(=O)CNC(=O)[C@H](Cc2cnc[nH]2)NC(=O)[C@H](Cc2c[nH]c3ccccc23)NC1=O` (racemic) [Compound 15], the “MIC E. cloacae ATCC222 WUXI::MIC” value with E. cloacae ATCC222 is reported as 3.1. Besides, the “MIC K. pneumoniae ATCC43816 Wuxi::MIC” value in the experiment on K. pneumoniae ATCC43816 was determined as 75. Further, in the experiment with E. coli 25922, the “MIC E. coli 25922 WUXI::MIC” value is on record as 50. The “MIC E. coli BW25113 WUXI::MIC” value with E. coli BW25113 turned out to be 100. Also, the “MIC E. coli 25922 IMP WUXI::MIC” value in the experiment with E. coli 25922 IMP amounted to 0.016.
Turning to `CC(C)[C@@H]1NC(=O)[C@H](Cc2ccccc2)NC(=O)CSC[C@@H](C(=O)NCC(N)=O)NC(=O)[C@H](Cc2cnc[nH]2)NC(=O)[C@H](CCCNC(=N)N)NC(=O)[C@H](Cc2cnc[nH]2)NC(=O)[C@H](Cc2ccccc2)N(C)C(=O)[C@H](CCCNC(=N)N)NC(=O)[C@H](CO)NC(=O)CNC(=O)[C@H](Cc2cnc[nH]2)NC(=O)[C@H](Cc2c[nH]c3ccccc23)NC1=O` (racemic) [Compound 1, rac-(3R,6S,9S,12S,15S,18S,21S,27S,30S, 33S,36S)-N-(2-amino-2-oxo-ethyl)-15,36-dibenzyl-9,18-bis(3-guanidinopropyl)-21-(hydroxymethyl)-6,12,27-tris(1H-imidazol-5-ylmethyl)-30-(1H-indol-3-ylmethyl)-33-isopropyl-16-methyl-5,8,11,14,17,20,23,26,29,32,35,38-dodecaoxo-1-thia-4,7,10,13,16,19,22,25,28,31,34,37-dodecazacyclononatriacontane-3-carboxamide], the “MIC E. cloacae ATCC222 WUXI::MIC” value in the experiment with E. cloacae ATCC222 is given as 6.3. Further, the “MIC K. pneumoniae ATCC43816 Wuxi::MIC” value against K. pneumoniae ATCC43816 is on record as 50. For the same compound, the “MIC E. coli 25922 WUXI::MIC” value with E. coli 25922 came out at 50. Further, in the experiment with E. coli BW25113, the “MIC E. coli BW25113 WUXI::MIC” value came to 100. In the experiment on E. coli 25922 IMP, the “MIC E. coli 25922 IMP WUXI::MIC” value is recorded as 0.031.
With `CC(C)[C@@H]1NC(=O)[C@H](Cc2ccccc2)NC(=O)CSC[C@@H](C(=O)NCC(N)=O)NC(=O)[C@H](Cc2cncn2C)NC(=O)[C@H](CCCNC(=N)N)NC(=O)[C@H](Cc2cnc[nH]2)NC(=O)[C@H](Cc2ccc(O)cc2)N(C)C(=O)[C@H](CCCNC(=N)N)NC(=O)[C@H](CO)NC(=O)CNC(=O)[C@H](Cc2cnc[nH]2)NC(=O)[C@H](Cc2c[nH]c3ccccc23)NC1=O` (racemic) [Compound 14], in the experiment with E. cloacae ATCC222, the “MIC E. cloacae ATCC222 WUXI::MIC” value amounted to 1.19. Moreover, the “MIC K. pneumoniae ATCC43816 Wuxi::MIC” value against K. pneumoniae ATCC43816 is given as 25. Also, the “MIC E. coli 25922 WUXI::MIC” value against E. coli 25922 is 25. In the experiment with E. coli BW25113, the “MIC E. coli BW25113 WUXI::MIC” value is 37.5. Besides, the “MIC E. coli 25922 IMP WUXI::MIC” value against E. coli 25922 IMP came out at 0.0119.
Regarding `CC[C@@H]1NC(=O)[C@H](Cc2ccccc2)NC(=O)CSC[C@@H](C(=O)NCC(N)=O)NC(=O)[C@H](Cc2cncn2C)NC(=O)[C@H](CCCNC(=N)N)N(C)C(=O)[C@H](Cc2c[nH]cn2)NC(=O)[C@H](Cc2ccc(O)cc2)N(C)C(=O)[C@H](CCCNC(=N)N)NC(=O)[C@H](CO)NC(=O)CNC(=O)[C@H](Cc2c[nH]cn2)NC(=O)[C@H](Cc2cccc3ccccc23)NC1=O` [Compound 34] ({CH2CO}-F[Abu][1Nal]HGSR[NMeY]H[NMeR][His(π-Me)]CG-NH2; thioether N-12), the “MIC E. cloacae ATCC222 WUXI::MIC” value in the experiment on E. cloacae ATCC222 was 6.3. Further, the “MIC K. pneumoniae ATCC43816 Wuxi::MIC” value against K. pneumoniae ATCC43816 was 25. Also, in the experiment with E. coli 25922, the “MIC E. coli 25922 WUXI::MIC” value is on record as 41.667. For the same compound, the “MIC E. coli BW25113 WUXI::MIC” value in the experiment on E. coli BW25113 is 100. Further, the “MIC E. coli 25922 IMP WUXI::MIC” value against E. coli 25922 IMP stood at 0.063.
Consider `CCCC[C@@H]1NC(=O)CSC[C@@H](C(=O)NCC(N)=O)NC(=O)[C@H](Cc2cncn2C)NC(=O)[C@H](CCCNC(=N)N)NC(=O)[C@H](Cc2c[nH]cn2)NC(=O)[C@H](Cc2ccc(O)cc2)N(C)C(=O)[C@H](CCCNC(=N)N)NC(=O)[C@H](CO)NC(=O)CNC(=O)[C@H](Cc2c[nH]cn2)NC(=O)[C@H](Cc2cccc3ccccc23)NC(=O)[C@H](CC)NC1=O` [Compound 20] ({CH2CO}-[Nle][Abu][1Nal]HGSR[NMeY]HR[His(π-Me)]CG-NH2; thioether N-12), for which the “MIC E. cloacae ATCC222 WUXI::MIC” value with E. cloacae ATCC222 is 1.6. The “MIC K. pneumoniae ATCC43816 Wuxi::MIC” value against K. pneumoniae ATCC43816 is 25. Also, the “MIC E. coli 25922 WUXI::MIC” value with E. coli 25922 was 13. The “MIC E. coli BW25113 WUXI::MIC” value against E. coli BW25113 is listed as 25. Also, the “MIC E. coli 25922 IMP WUXI::MIC” value in the experiment with E. coli 25922 IMP was determined as 0.0078.
Turning to `CC[C@@H]1NC(=O)[C@H](Cc2ccccc2)NC(=O)CSC[C@@H](C(=O)NCC(N)=O)NC(=O)[C@H](C)NC(=O)[C@H](CCCNC(=N)N)NC(=O)[C@H](Cc2c[nH]cn2)NC(=O)[C@H](Cc2ccc(O)cc2)N(C)C(=O)[C@H](CCCNC(=N)N)NC(=O)[C@H](CO)NC(=O)CNC(=O)[C@H](Cc2c[nH]cn2)NC(=O)[C@H](Cc2cccc3ccccc23)NC1=O` [Compound 39, (3R,6S,9S,12S,15S,18S,21S,27S,30S, 33S,36S)-N-(2-amino-2-oxo-ethyl)-36-benzyl-33-ethyl-9,18-bis(3-guanidinopropyl)-21-(hydroxymethyl)-15-[(4-hydroxyphenyl)methyl]-12,27-bis(1H-imidazol-4-ylmethyl)-6,16-dimethyl-30-(1-naphthylmethyl)-5,8,11,14,17,20,23,26,29,32,35,38-dodecaoxo-1-thia-4,7,10,13,16,19,22,25,28,31,34,37-dodecazacyclononatriacontane-3-carboxamide] ({CH2CO}-F[Abu][1Nal]HGSR[NMeY]HRACG-NH2; thioether N-12), the “MIC E. cloacae ATCC222 WUXI::MIC” value in the experiment with E. cloacae ATCC222 was determined as 100. The “MIC K. pneumoniae ATCC43816 Wuxi::MIC” value in the experiment with K. pneumoniae ATCC43816 was 100. The “MIC E. coli 25922 WUXI::MIC” value in the experiment with E. coli 25922 was determined as 100. Also, the “MIC E. coli BW25113 WUXI::MIC” value against E. coli BW25113 turned out to be 100. Moreover, the “MIC E. coli 25922 IMP WUXI::MIC” value in the experiment on E. coli 25922 IMP is 6.3.
Regarding `CC[C@@H]1NC(=O)[C@H](Cc2ccccc2)NC(=O)CSC[C@@H](C(=O)NCC(N)=O)NC(=O)[C@H](Cc2cncn2C)NC(=O)[C@H](CCCNC(=N)N)NC(=O)[C@H](Cc2c[nH]cn2)NC(=O)[C@H](Cc2ccc(O)cc2)N(C)C(=O)[C@H](CCCNC(=N)N)NC(=O)[C@H](CO)NC(=O)CN(CCC(N)=O)C(=O)[C@H](Cc2c[nH]cn2)NC(=O)[C@H](Cc2cccc3ccccc23)NC1=O` [Compound 30] ({CH2CO}-F[Abu][1Nal]H[Gly(Nα-CH2CH2CONH2)]SR[NMeY]HR[His(π-Me)]CG-NH2; thioether N-12), the “MIC E. cloacae ATCC222 WUXI::MIC” value with E. cloacae ATCC222 was 1.6. The “MIC K. pneumoniae ATCC43816 Wuxi::MIC” value in the experiment with K. pneumoniae ATCC43816 is listed as 100. The “MIC E. coli 25922 WUXI::MIC” value against E. coli 25922 is reported as 25. Further, the “MIC E. coli BW25113 WUXI::MIC” value against E. coli BW25113 worked out at 50. In the experiment on E. coli 25922 IMP, the “MIC E. coli 25922 IMP WUXI::MIC” value is 0.016.

(Values after US20240279283A1, “CYCLIC PEPTIDE ANTIBIOTICS” (priority 2021, published 2024).)
